Test results as given in patent US8703805B2 (Exelixis Patent Company LLC, priority 2005, dated 2014).

Tested on: LXRα and/or LXRβ
Assay: LXR/LXRE co-transfection assay (luciferase reporter, CV-1 cells)
Format: cell-based, human
Settings: IC50 or EC50 for LXR (LXRα and/or LXRβ, not distinguished), tested as described in Example 109, CV-1 cells
Outline: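 Luciferase readout after 20 h compound exposure at 37 °C in CV-1 cells transiently expressing human LXRα or LXRβ with RXRα and an LXRE-driven reporter. Dose-response over 8 points at ½-log spacing, 4 wells each, fitted for EC50/IC50; values average ≥3 independent experiments, efficacy as % of high control.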

| SMILES | EC50 |
| --- | --- |
| CC(=O)c1cc(-c2ccc(-c3cccc(S(=O)(=O)C(C)C)c3)s2)n(-c2ncccc2C(F)(F)F)n1 [Example 1183, 1-{5-(5-{3-[(1-methylethyl)sulfonyl)phenyl}-2-thienyl)-1-[3-(trifluoromethyl)pyridin-2-yl]-1H-pyrazol-3-yl}ethanone] | < 1000 nM |
| CC(C)S(=O)(=O)c1cccc(-c2ccc(-c3cc(C(C)(C)O)nn3-c3ncccc3C(F)(F)F)s2)c1 [Example 1184, 2-{5-(5-{3-[(1-methylethyl)sulfonyl]phenyl}-2-thienyl)-1-[3-(trifluoromethyl)pyridin-2-yl]-1H-pyrazol-3-yl}propan-2-ol] | 1000 to 10000 nM |
| CC(C)S(=O)(=O)c1cccc(-c2ccc(-c3cc(C(C)(C)O)nn3-c3ccccc3Cl)s2)c1 [Example 1185, 2-[1-(2-chlorophenyl)-5-(5-{3-[(1-methylethyl)sulfonyl]phenyl}-2-thienyl)-1H-pyrazol-3-yl]propan-2-ol] | < 1000 nM |
| COC(=O)c1cccc(-n2nc(C(F)(F)F)cc2-c2ccc(-c3cccc(S(C)(=O)=O)c3)s2)c1 [Example 1186, methyl 3-[5-{5-[3-(methylsulfonyl)phenyl]-2-thienyl}-3-(trifluoromethyl)-1H-pyrazol-1-yl]benzoate] | < 1000 nM |
| CC(C)(O)c1cccc(-n2nc(C(F)(F)F)cc2-c2ccc(-c3cccc(S(C)(=O)=O)c3)s2)c1 [Example 1187, 2-{3-[5-{5-[3-(methylsulfonyl)phenyl]-2-thienyl}-3-(trifluoromethyl)-1H-pyrazol-1-yl]phenyl}propan-2-ol] | < 1000 nM |
| CS(=O)(=O)c1cccc(-c2ccc(-c3cc(C4(C#N)CC4)nn3-c3ccccc3Cl)s2)c1 [Example 1188, 1-[1-(2-chlorophenyl)-5-{5-[3-(methylsulfonyl)phenyl]-2-thienyl}-1H-pyrazol-3-yl]cyclopropanecarbonitrile] | < 1000 nM |
| COC(C)(C)c1cc(-c2ccc(-c3cccc(S(C)(=O)=O)c3)s2)n(-c2ccccc2C(F)(F)F)n1 [Example 1189, 3-[1-methyl-1-(methyloxy)ethyl]-5-{5-[3-(methylsulfonyl)phenyl]-2-thienyl}-1-[2-(trifluoromethyl)phenyl]-1H-pyrazole] | < 1000 nM |
| CS(=O)(=O)c1cccc(-c2ccc(-c3cc(C4(C#N)CCCC4)nn3-c3ccccc3Cl)s2)c1 [Example 1191, 1-[1-(2-chlorophenyl)-5-{5-[3-(methylsulfonyl)phenyl]-2-thienyl}-1H-pyrazol-3-yl]cyclopentanecarbonitrile] | < 1000 nM |
| CC(C)(CN)c1cc(-c2ccc(-c3cccc(S(C)(=O)=O)c3)s2)n(-c2ccccc2Cl)n1 [Example 1192, 2-[1-(2-chlorophenyl)-5-{5-[3-(methylsulfonyl)phenyl]-2-thienyl}-1H-pyrazol-3-yl]-2-methylpropan-1-amine] | < 1000 nM |
| CS(=O)(=O)c1cccc(-c2ccc(-c3cc(C(=O)O)nn3-c3ccccc3C(F)(F)F)s2)c1 [Example 1193, 5-{5-[3-(methylsulfonyl)phenyl]-2-thienyl}-1-[2-(trifluoromethyl)phenyl]-1H-pyrazole-3-carboxylic acid] | 1000 to 10000 nM |
| CCNC(=S)c1cc(-c2ccc(-c3cccc(S(C)(=O)=O)c3)s2)n(-c2ccccc2Cl)n1 [Example 1194, 1-(2-chlorophenyl)-N-ethyl-5-{5-[3-(methylsulfonyl)phenyl]-2-thienyl}-1H-pyrazole-3-carbothioamide] | < 1000 nM |
| CS(=O)(=O)c1cccc(-c2ccc(-c3cc(C(=O)NCC(F)(F)F)nn3-c3ccccc3C(F)(F)F)s2)c1 [Example 1195, 5-{5-[3-(methylsulfonyl)phenyl]-2-thienyl}-N-(2,2,2-trifluoroethyl)-1-[2-(trifluoromethyl)phenyl]-1H-pyrazole-3-carboxamide] | < 1000 nM |
| CS(=O)(=O)NC(=O)c1cc(-c2ccc(-c3cccc(S(C)(=O)=O)c3)s2)n(-c2ccccc2C(F)(F)F)n1 [Example 1196, N-(methylsulfonyl)-5-{5-[3-(methylsulfonyl)phenyl]-2-thienyl}-1-[2-(trifluoromethyl)phenyl]-1H-pyrazole-3-carboxamide] | 1000 to 10000 nM |
| NS(=O)(=O)c1cccc(-c2ccc(-c3cc(C(F)(F)F)nn3-c3cc(Cl)ccc3Oc3ccccc3)s2)c1 [Example 1198, 3-(5-{1-[5-chloro-2-(phenyloxy)phenyl]-3-(trifluoromethyl)-1H-pyrazol-5-yl}-2-thienyl)benzenesulfonamide] | < 1000 nM |
| CC(C)(O)c1cc(-c2ccc(-c3cccc(S(C)(=O)=O)c3)cc2)n(-c2ccccc2C(F)(F)F)n1 [Example 1201, 2-{5-[3′-(methylsulfonyl)biphenyl-4-yl]-1-[2-(trifluoromethyl)phenyl]-1H-pyrazol-3-yl}propan-2-ol] | < 1000 nM |
| CC(C)(O)c1cc(-c2ccc(-c3cccc(S(C)(=O)=O)c3)cc2)n(-c2ncccc2C(F)(F)F)n1 [Example 1202, 2-{5-[3′-(methylsulfonyl)phenyl-4-yl]-1-[3-(trifluoromethyl)pyridin-2-yl]-1H-pyrazol-3-yl}propan-2-ol] | < 1000 nM |

| SMILES | EC50 |
| --- | --- |
| CC(C)(NC=O)c1cc(-c2ccc(-c3cccc(S(C)(=O)=O)c3)s2)n(-c2ccccc2Cl)n1 [Example 1203, N-{1-[1-(2-chlorophenyl)-5-{5-[3-(methylsulfonyl)phenyl]-2-thienyl}-1H-pyrazol-3-yl]-1-methylethyl}formamide] | 1000 to 10000 nM |
| CC(C)(CNC=O)c1cc(-c2ccc(-c3cccc(S(C)(=O)=O)c3)s2)n(-c2ccccc2Cl)n1 [Example 1204, N-{2-[1-(2-chlorophenyl)-5-{5-[3-(methylsulfonyl)phenyl]-2-thienyl}-1H-pyrazol-3-yl]-2-methylpropyl}formamide] | 1000 to 10000 nM |
| CC(C)(C(=O)O)c1cccc(-c2ccc(-c3cc(C(F)(F)F)nn3Cc3ccc(F)cc3F)s2)c1 [Example 1205, 2-[3-(5-{1-[(2,4-difluorophenyl)methyl]-3-(trifluoromethyl)-1H-pyrazol-5-yl}-2-thienyl)phenyl]-2-methylpropanoic acid] | < 1000 nM |
| CC(=O)c1cc(-c2cc(C(F)(F)F)nn2-c2ccccc2Cl)ccc1-c1cccc(S(C)(=O)=O)c1 [Example 1206, 1-{4-[1-(2-chlorophenyl)-3-(trifluoromethyl)-1H-pyrazol-5-yl]-3′-(methylsulfonyl)biphenyl-2-yl}ethanone] | < 1000 nM |
| CC(C)(O)c1cc(-c2cc(C(F)(F)F)nn2-c2ccccc2Cl)ccc1-c1cccc(S(C)(=O)=O)c1 [Example 1207, 2-{4-[1-(2-chlorophenyl)-3-(trifluoromethyl)-1H-pyrazol-5-yl]-3′-(methylsulfonyl)biphenyl-2-yl}propan-2-ol] | 1000 to 10000 nM |
| COC(=O)c1cccc(-c2ccc(-c3cc(C(F)(F)F)nn3-c3ccccc3Cl)cc2)c1 [Example 1208, methyl 4′-[1-(2-chlorophenyl)-3-(trifluoromethyl)-1H-pyrazol-5-yl]biphenyl-3-carboxylate] | 1000 to 10000 nM |
| CS(=O)(=O)c1cccc(-c2ccc(-c3cc(C(O)C(F)(F)F)nn3-c3ccccc3Cl)s2)c1 (centres unmarked) [Example 1209, 1-[1-(2-chlorophenyl)-5-{5-[3-(methylsulfonyl)phenyl]-2-thienyl}-1H-pyrazol-3-yl]-2,2,2-trifluoroethanol] | < 1000 nM |
| CS(=O)(=O)c1cccc(-c2ccc(-c3cc(C(=O)N4CCCC4)nn3-c3ccccc3C(F)(F)F)s2)c1 [Example 1210, 5-{5-[3-(methylsulfonyl)phenyl]-2-thienyl}-3-(pyrrolidin-1-ylcarbonyl)-1-[2-(trifluoromethyl)phenyl]-1H-pyrazole] | < 1000 nM |
| COC(F)(F)c1cc(-c2ccc(-c3cccc(S(C)(=O)=O)c3)s2)n(-c2ccccc2C(F)(F)F)n1 [Example 1211, 3-[difluoro(methyloxy)methyl]-5-{5-[3-(methylsulfonyl)phenyl]-2-thienyl}-1-[2-(trifluoromethyl)phenyl]-1H-pyrazole] | < 1000 nM |
| CC(C)(O)c1cc(-c2ccc(-c3cccc(S(C)(=O)=O)c3)s2)n(-c2cc(Cl)ccc2Oc2ccccc2)n1 [Example 1212, 2-(1-[5-chloro-2-(phenyloxy)phenyl]-5-{5-[3-(methylsulfonyl)phenyl]-2-thienyl}-1H-pyrazol-3-yl)propan-2-ol] | < 1000 nM |
| CC(=O)c1cc(-c2ccc(-c3cccc(S(C)(=O)=O)c3)s2)n(-c2cc(Cl)ccc2Oc2ccccc2)n1 [Example 1213, 1-(1-[5-chloro-2-(phenyloxy)phenyl]-5-{5-[3-(methylsulfonyl)phenyl]-2-thienyl}-1H-pyrazol-3-yl)ethanone] | < 1000 nM |
| CC(C)(O)c1cc(-c2ccc(-c3cccc(S(N)(=O)=O)c3)s2)n(-c2cc(Cl)ccc2Cl)n1 [Example 1214, 3-{5-[1-(2,5-dichlorophenyl)-3-(1-hydroxy-1-methylethyl)-1H-pyrazol-5-yl]-2-thienyl}benzenesulfonamide] | 1000 to 10000 nM |
| CS(=O)(=O)c1cccc(-c2ccc(-c3cc(C(F)(F)F)nn3-c3ccccc3Oc3ccccc3)s2)c1 [Example 1215, 5-{5-[3-(methylsulfonyl)phenyl]-2-thienyl}-1-[2-(phenyloxy)phenyl]-3-(trifluoromethyl)-1H-pyrazole] | < 1000 nM |
| CC(C)(O)c1cc(-c2ccccc2Cl)n(-c2ccc(-c3cccc(S(C)(=O)=O)c3)cc2)n1 [Example 1217, 2-{5-(2-chlorophenyl)-1-[3′-(methylsulfonyl)biphenyl-4-yl]-1H-pyrazol-3-yl}propan-2-ol] | 1000 to 10000 nM |
| COC(=O)c1cc(-c2ccccc2Cl)n(-c2ccc(-c3cccc(S(C)(=O)=O)c3)cc2)n1 [Example 1218, methyl 5-(2-chlorophenyl)-1-[3′-(methylsulfonyl)biphenyl-4-yl]-1H-pyrazole-3-carboxylate] | < 1000 nM |
| CC(C)(O)c1cc(-c2ccc(-c3cccc(S(C)(=O)=O)c3)cc2)n(-c2ccccc2Cl)n1 [Example 1219, 2-{1-(2-chlorophenyl)-5-[3′-(methylsulfonyl)biphenyl-4-yl]-1H-pyrazole-3-yl}propan-2-ol] | < 1000 nM |
